Experiments:
HSP90 and HSP70 = assay: Western blotting of AR molecular chaperones; format: cell-based, human; conditions: LNCaP and 22RV1, 12 hours
Description: Cells were lysed and AR, HSP90 and HSP70 protein levels were measured by Western blot analysis.
Lysates were fractionated on polyacrylamide gels and transferred to nitrocellulose. The blots were probed with specific antibodies followed by secondary antibody then membranes were examined using the LI-COR Odyssey infrared imaging system (LI-COR Biotechnology, Lincoln Nebr.). […] The β-actin antibody (1:10000) was purchased from Sigma (St. Louis, Mo.).

in vivo = assay: in vivo; set-up: species or system rat; conditions: for T1/2: rats
Description: A simple and sensitive method for the determination of Ailanthonein plasma was developed, using high-performance liquid chromatography-tandem mass spectrometry (HPLC-MS/MS). Brusatol was used as an internal standard. […] The details of this HPLC-MS/MS method and sample preparation are described in our previous study^37.
The statistical analysis was performed by SPSS 22.0 software. The differences between control group and experimental groups were determined by one-way ANOVA. Since treatment and time course was investigated, two-way ANOVA followed by post hoc test was also applied. Data was expressed as mean and standard deviation (s.d.) and P<0.05 was considered significant. Pharmacokinetic parameters were calculated by WinNonlin software version 5.2.1 (Pharsight Corporation, Mountain View, USA) based on noncompartmental analysis.
Sprague-Dawley rats (purchased from Shanghai SLAC laboratory animal Co. Ltd., Shanghai, China) were fasted for 12 h with free access to water prior to the pharmacokinetic study. The rats were randomized into two groups for oral administration (5 mg/kg) and intravenous injection (1 mg/kg). Blood samples were collected from the orbital plexus into heparinized centrifuge tubes at fifteen different time points between 5 min to 36 h for the oral administration group and nine time points between 5 min to 6 h for the intravenous one. The pharmacokinetic parameters were calculated by WinNonlin software version 5.2.1 based on noncompartmental analysis. Oral bioavailability was calculated as F (%)=AUC0-∞(p.o.)/AUC0-∞(i.v.)×Dose (i.v.)/Dose (p.o.).

[1] = system: CYP2C11, CYP3A1/2 and CYP1A2; conditions: mouse, in vivo
Description: FIG. 6A-FIG. 6H. Pharmacokinetic studies of AIL. […] Images show tumors at harvest (30 days after treatment). Scale bar, 1 cm. […] AIL or vehicle control was measured by Western blotting analysis (D) and the livers were photographed and stained with HE (e). Scale bar, the black scale bar is 1 cm (top) and the white scale bar is 50 μm (bottom). […] Scale bar, 1 cm.

VCaP xenografts = assay: Subcutaneous VCaP xenograft model; format: in vivo, mouse; conditions: 10 mg/kg MDV or 2 mg/kg AIL i.p., 32 days
Description: (A-C) 22RV1 (A), LNCaP (B) and Vcap (C) cells were injected with 0.1 ml PBS (22RV1) or Matrigel (LNCaP, Vcap) into the right flank of BALB/c-nude. […] Tumor volume and the mouse body weight were measured once a week. The mice were sacrificed after 28 days (22RV1), 49 days (LNCaP) or 32 days (Vcap) and the tumors from each group of mice were harvested and images were taken. […] Data represent the mean±s.d.
BALB/c-nude mice (6-8 weeks old, male) were purchased from the Sino-British Sippr/BK Lab Animal Co., Ltd (Shanghai, China) and maintained under pathogen-free conditions. The animal use protocol was approved by the Institutional Animal Care and Use Committee of East China Normal University. […] The tumor volume and mouse body weight were measured twice a week. The tumor volume was calculated using the following equation: tumor volume (V)=length×width×width×0.52.
BALB/c-nude mice (6-8 week old, male) were purchased from the Sino-British Sippr/BK Lab Animal Co., Ltd (Shanghai, China) and maintained under pathogen-free conditions. […] The tumor volume and mouse body weight were measured twice a week. The tumor volume was calculated using the following equation: tumor volume (V)=length×width×width×0.52.

[2] = system: 22RV1-luc orthotopic xenografts; assay: Orthotopic castration resistant prostate cancer model; format: in vivo, mouse; conditions: castrated mice, 2 mgkg^−1 AIL or 10 mgkg^−1 MDV i.p. once per day, 28 days
Description: (A,B) The dorsolateral prostate of male BALB/c-nude mice was injected with 1×10^6 22RV1-luc cells in 30 μl matrigel. […] After 28 days, mice were sacrificed and the local tumors were removed and volumes and weight of the tumors were measured (A).
For orthotopic castration resistant prostate cancer xenografts, male BALB/c-nude mice (8-9 weeks of age) were anesthetized using 150 mgkg^−1 2,2,2-tribromethanol plus 350 mgkg^−1 tert-amyl alcohol and then 5×10^5 22RV1-luc cells suspended in 30 μl 50% Matrigel were surgically injected into the dorsolateral prostate lobes. One week after injection, the tumor-bearing mice were castrated and randomly assigned to three groups. […] Prostate tumor growth and local metastasis were monitored weekly using the IVIS Imaging System (Xenogen Corporation, Alameda, Calif.). Images and measurements of bioluminescent signals were acquired and analyzed using LivingImage and Xenogen software^52.

LNCaP-MDV3100-R cells = assay: SRB cell growth assay, MDV3100-resistant cells; conditions: 72 hours, 20 μM BIC, 20 μM MDV, 0.1 μM AIL
Description: Cell growth was determined by SRB assay.
The half maximal inhibitory concentration (IC50) was calculated using GraphPad Prism 5.0 (GraphPad, San Diego, Calif.).

[3] = system: AR-regulated genes (PSA, TMPRSS2, FKBP5, SLC45A3, NDRG1 mRNA); assay: Quantitative real-time PCR of AR-regulated genes; conditions: 22RV1 cells, 10 nM R1881, 10 μM MDV or 0.2 μM AIL, 12 hours
Description: The genes expression was measured byquantitative-PCR.
Total RNA was extracted using TRIzol (Takara, Japan) according to the manufacturer's instructions. 1 μg of total RNA was used for cDNA synthesis using a cDNA reverse transcription kit (Takara, Japan). Real-time PCR was performed in triplicate using gene-specific primers on a Stratagene Mx3005P PCR system (Agilent Technologies) machine. The mRNA expression levels were normalized to β-actin expression or GAPDH.

LNCaP cells = assay: SRB cell growth assay, androgen-starved cells with R1881; conditions: 0.1 nM R1881, 96 hours, 10 μM BIC, 10 μM MDV, 0.1-0.4 μM AIL
c4-2b = assay: as above; conditions: androgen-starved c4-2b, 0.1 nM R1881, 96 hours; 10 μM BIC, 10 μM MDV, 0.1 μM AIL
22RV1 = assay: as above; conditions: androgen-starved 22RV1, 0.1 nM R1881, 96 hours; 10 μM BIC, 10 μM MDV, 0.1 μM AIL
[4] = Sprague-Dawley, rat, in vivo, iv, 1 mg/kg
[5] = Sprague-Dawley, rat, in vivo, po, 5 mg/kg

For `C=CCNC1=C2C[C@@H](C)C[C@H](OC)[C@H](O)[C@@H](C)/C=C(\C)[C@H](OC(N)=O)[C@@H](OC)/C=C\C=C(/C)C(=O)NC(=CC1=O)C2=O` [17-AAG], the “HSP90 and HSP70 protein levels” value (HSP90 and HSP70) was “induced up-regulation of HSP90 and HSP70 protein”.
With `C=C1[C@@H](O)[C@]2(O)OC[C@]34[C@H]2[C@@]2(C)[C@H](O)C(=O)C=C(C)[C@@H]2C[C@H]3OC(=O)C[C@@H]14` [AIL, 11β,20-Epoxy-1β,11,12α-trihydroxypicrasa-3,13(21)-diene-2,16-dione] the “Bioavailability (oral)” value (in vivo; Sprague-Dawley, rat, in vivo) was 25.7%, the bioavailability (in vivo; Sprague-Dawley, rat, in vivo) was greater than 20% and the AUC0-t (in vivo; [4]) was 57874.3 ± 6871.1 ng·min/mL. The “AUC0-∞” value (in vivo; [4]) was 61517.4 ± 5986.2 ng·min/mL, the AUC0-t (in vivo; [5]) was 67324.5 ± 7405.3 ng·min/mL and the “AUC0-∞” value (in vivo; [5]) was 79053.9 ± 14616.6 ng·min/mL. For the same molecule, the “absorption, elimination and distribution after oral administration” value (in vivo; rat, in vivo, po) was “absorbed quickly, eliminated rapidly and distributed widely in tissues”, the T1/2 (in vivo; i.v. 1 mg kg^−1, mean ± s.d.) was 1.888 ± 0.66 h and the T1/2 (in vivo; p.o. 5 mg kg^−1, mean ± s.d.) was 12.17 ± 2.598 h. The “expression of CYP enzymes in liver” value [1] was “did not influence the expression”.
For `CNC(=O)c1ccc(N2C(=S)N(c3ccc(C#N)c(C(F)(F)F)c3)C(=O)C2(C)C)cc1F` [MDV], the “xenograft sensitivity (tumor volume)” value (VCaP xenografts) was “still responded”, the “reduction of tumor volume” value [2] was 15% and the “cell growth (SRB)” value (LNCaP-MDV3100-R cells) was “totally resistant”. For the same molecule, the “PSA mRNA level in the presence of R1881” value [3] was “decreased”, the “cell growth (SRB)” value (LNCaP cells) was “effectively blocked cell growth” and the “cell growth (SRB)” value (c4-2b) was “could not significantly inhibit cell growth”. For the same molecule, the “cell growth (SRB)” value (22RV1) was “could not significantly inhibit cell growth”.

— patent US10420747B2 (priority 2016, dated 2019)
